# Test results as given in PMC8079714 (Nature Communications, 2021).
# Values joined by “and” are separate entries in the source; they are usually repeats but may differ in a detail not shown here. Equal entries are not always repeated.
# System: N. benthamiana leaves
# Conditions: in vivo
row,Substance,sites showing a visible cell death response out of total infiltrated sites
1,DPIYTPNSGETIDAGAPYTVTW [SGP123-44rec],10/10 and 30/30
2,NPDFNPVNKPTPNEKIPAGSTYKIEWTAPA [VdSNP30rec],1/10 and 3/30
3,TADFDPIFKPEAWQSVAAGQSFQITWDAPA [FsSNP30rec],9/10 and 27/30
4,TAGFDAISVPTNGQVVKVGDVLDITWAPNA [SsSNP30rec],9/10 and 10/10 and 28/30
5,TAGFDAISVPTNGQVVQVGDVLDITWAPNS [BcSNP30rec],10/10 and 30/30
6,TAGFDAVLTPAKDEVVAAGSSYTITWDYSS [VmSNP30rec],0/10 and 0/30
7,TPDFDPIYTPKKDEVVAAGSPLVITWDAPA [CpSNP30rec],9/10 and 10/10 and 28/30
8,TPGFHALVKPVRDEVIPAGKPYTLEWQPGG [MoSNP30rec],1/10 and 3/30
9,VADFDPVLTPTNWEEVSAGKTLEITWQAKP [FvSNP30rec],0/10 and 0/30
10,W44A (FDPIYTPNSGETIDAGAPYTVTA),0/5 and 0/15
